The results in this text go back to patent publication US8722673B2, “Imine compounds for combating invertebrate pests” (BASF SE, priority 2008, dated 2014).

Holding throughout (type): in vivo
The subject of data set [1] is Boll Weevil (Anthonomus grandis). Nature of the data set: Boll weevil microtiter plate diet test. As to conditions: 120 h, read-out: mortality in comparison with untreated controls. On the procedure:
For evaluating control of boll weevil (Anthonomus grandis) the test unit consisted of 24-well-microtiter plates containing an insect diet and 20-30 A. grandis eggs. The compounds were formulated using a solution containing 75% v/v water and 25% v/v DMSO. Different concentrations of formulated compounds were sprayed onto the insect diet at 20 μl, using a custom built micro atomizer, at two replications. After application, microtiter plates were incubated at about 23±1° C. and about 50±5% relative humidity for 5 days. Egg and larval mortality was then visually assessed.

The subject of data set [2] is Diamond Back Moth (Plutella xylostella). Nature of the data set: Diamond back moth leaf-dip test on Chinese cabbage. As to conditions: read-out: mortality in comparison with untreated controls. On the procedure: (§1) If not otherwise specified the test solutions were prepared as follow:
(§2) The active compound was dissolved at the desired concentration in a mixture of 1:1 (vol:vol) distilled water:acteon. The test solution was prepared the day it was used and in general at concentrations of […] (wt/vol).
Leaves of Chinese cabbage were dipped in test solution and air-dried. Treated leaves were placed in petri dished lined with moist filter paper. Mortality was recorded 24, 72, and 120 hours after treatment.

In data set [3] the test system is Tobacco Budworm (Heliothis virescens). Nature of the data set: Tobacco budworm microtiter plate diet test. Conditions: 120 h, read-out: mortality in comparison with untreated controls. The protocol: For evaluating control of tobacco budworm (Heliothis virescens) the test unit consisted of 96-well-microtiter plates containing an insect diet and 15-25 H. virescens eggs. The compounds were formulated using a solution containing 75% v/v water and 25% v/v DMSO. Different concentrations of formulated compounds were sprayed onto the insect diet at 10 μl, using a custom built micro atomizer, at two replications. After application, microtiter plates are incubated at about 28±1° C. and about 80±5% relative humidity for 5 days. Egg and larval mortality is then visually assessed.

Data set [4] has as its system Southern Armyworm (Spodoptera eridania). Nature of the data set: Southern armyworm spray test on lima bean plants. As to conditions: 96 h, read-out: mortality in comparison with untreated controls. The protocol:
The active compounds were formulated in cyclohexanone as a 10,000 ppm solution supplied in tubes. The tubes were inserted into an automated electrostatic sprayer equipped with an atomizing nozzle and served as stock solutions for which lower dilutions are made in 50% acetone:50% water (v/v). A nonionic surfactant (Kinetic®) was included in the solution at a volume of 0.01% (v/v).
Lima bean plants (variety Sieva) were grown 2 plants to a pot and selected for treatment at the 1st true leaf stage. Test solutions were sprayed onto the foliage by an automated electrostatic plant sprayer equipped with an atomizing spray nozzle. The plants were dried in the sprayer fume hood and then removed from the sprayer. Each pot was placed into perforated plastic bags with a zip closure. About 10 to 11 armyworm larvae were placed into the bag and the bags zipped closed. Test plants were maintained in a growth room at about 25° C. and about 20-40% relative humidity for 4 days, avoiding direct exposure to fluorescent light (24 hour photoperiod) to prevent trapping of heat inside the bags. Mortality and reduced feeding were assessed 4 days after treatment, compared to untreated control plants.

The test system of data set [5] is Mediterranean Fruitfly (Ceratitis capitata). The data set is described as follows: Mediterranean fruitfly microtiter plate diet test. As to conditions: 120 h, read-out: mortality in comparison with untreated controls. The protocol:
For evaluating control of Mediterranean fruitfly (Ceratitis capitata) the test unit consisted of microtiter plates containing an insect diet and 50-80 C. capitata eggs.
The compounds were formulated using a solution containing 75% v/v water and 25% v/v DMSO. Different concentrations of formulated compounds were sprayed onto the insect diet at 5 μl, using a custom built micro atomizer, at two replications. After application, microtiter plates were incubated at about 28±1° C. and about 80±5% relative humidity for 5 days. Egg and larval mortality was then visually assessed.

For data set [6], the system named is Vetch Aphid (Megoura viciae). Nature of the data set: Vetch aphid leaf disk microtiter plate test. As to conditions: foliar, 120 h, read-out: mortality in comparison with untreated controls. The protocol: For evaluating control of vetch aphid (Megoura viciae) through contact or systemic means the test unit consisted of 24-well-microtiter plates containing broad bean leaf disks. The compounds were formulated using a solution containing 75% v/v water and 25% v/v DMSO. Different concentrations of formulated compounds were sprayed onto the leaf disks at 2.5 μl, using a custom built micro atomizer, at two replications. After application, the leaf disks were air-dried and 5-8 adult aphids were placed on the leaf disks inside the microtiter plate wells. The aphids were then allowed to suck on the treated leaf disks and incubated at about 23±1° C. and about 50±5% relative humidity for 5 days. Aphid mortality and fecundity was then visually assessed.

Data set [7] has as its system Silverleaf Whitefly (Bemisia argentifolii). The data set is described as follows: Silverleaf whitefly spray test on cotton plants. Conditions: 72 h, read-out: mortality in comparison with untreated controls. The source says: The active compounds were formulated in cyclohexanone as a 10,000 ppm solution supplied in tubes. The tubes were inserted into an automated electrostatic sprayer equipped with an atomizing nozzle and served as stock solutions for which lower dilutions were made in 50% acetone:50% water (v/v). A nonionic surfactant (Kinetic®) was included in the solution at a volume of 0.01% (v/v).
Cotton plants at the cotyledon stage (one plant per pot) were sprayed by an automated electrostatic plant sprayer equipped with an atomizing spray nozzle. The plants were dried in the sprayer fume hood and then removed from the sprayer. Each pot was placed into a plastic cup and about 10 to 12 whitefly adults (approximately 3-5 days old) were introduced. The insects were collected using an aspirator and a nontoxic Tygon® tubing connected to a barrier pipette tip. The tip, containing the collected insects, was then gently inserted into the soil containing the treated plant, allowing insects to crawl out of the tip to reach the foliage for feeding. Cups were covered with a reusable screened lid. Test plants were maintained in a growth room at about 25° C. and about 20-40% relative humidity for 3 days, avoiding direct exposure to fluorescent light (24 hour photoperiod) to prevent trapping of heat inside the cup. Mortality was assessed 3 days after treatment, compared to untreated control plants.

For data set [8], the system named is Cowpea Aphid (Aphis craccivora). The data set is described as follows: Cowpea aphid spray test on potted cowpea plants. As to conditions: 500 ppm; population reduction assessed after 24, 72 and 120 hours. The protocol:
as §1, §2
Potted cowpea plants colonized with approximately 100-150 aphids of various stages were sprayed after the pest population had been recorded. Population reduction was assessed after 24, 72, and 120 hours.

For data set [9], the system named is Orchid Thrips (Dichromothrips corbetti). Nature of the data set: Orchid thrips floral-immersion test. As to conditions: 96 h, read-out: mortality in comparison with untreated controls. The protocol: Dichromothrips corbetti adults used for bioassay were obtained from a colony maintained continuously under laboratory conditions. For testing purposes, the test compound was diluted to a concentration of 300 ppm (wt compound: vol diluent) in a 1:1 mixture of acetone:water (vol:vol), plus 0.01% vol/vol Kinetic® surfactant.
Thrips potency of each compound was evaluated by using a floral-immersion technique. Plastic petri dishes were used as test arenas. All petals of individual, intact orchid flowers were dipped into treatment solution and allowed to dry. Treated flowers were placed into individual petri dishes along with 10-15 adult thrips. The petri dishes were then covered with lids. All test arenas were held under continuous light and a temperature of about 28° C. for duration of the assay. After 4 days, the numbers of live thrips was counted on each flower, and along inner walls of each petri dish. The level of thrips mortality was extrapolated from pre-treatment thrips numbers.

`COC(=NO)c1ccc(C2=NOC(c3cc(Cl)cc(Cl)c3)(C(F)(F)F)C2)cc1C` (single isomer, unassigned) [Compound 1-30, 4-[5-(3,5-Dichloro-phenyl)-5-trifluoromethyl-4,5-dihydro-isoxazol-3-yl]-N-hydroxy-2-methyl-benzimidic acid methyl ester]: the mortality at 2500 ppm in [1], in [3] and in data set [5] was not below 75% throughout. The mortality at 300 ppm in data set [2] and in data set [4] was not below 75% in each case.
Take `COC(=NO)c1ccc(C2=NOC(c3cc(Cl)cc(Cl)c3)(C(F)(F)F)C2)cc1C` (single isomer, unassigned) [Compound 1-31, 4-[5-(3,5-Dichloro-phenyl)-5-trifluoromethyl-4,5-dihydro-isoxazol-3-yl]-N-hydroxy-2-methyl-benzimidic acid methyl ester]: the mortality (commonly the share of the test organisms that died) at 2500 ppm in data set [6] is not below 75%.
As for `Cc1cc(C2=NOC(c3cc(Cl)cc(Cl)c3)(C(F)(F)F)C2)ccc1/C=N/OCC(=O)NCC(F)(F)F` (centres unmarked) [Compound 1-9, 2-[1-{4-[5-(3,5-Dichloro-phenyl)-5-trifluoromethyl-4,5-dihydro-isoxazol-3-yl]-2-methyl-phenyl}-meth-(E)-ylideneaminooxy]-N-(2,2,2-trifluoro-ethyl)-acetamide], the mortality at 2500 ppm in data set [1] and in [3] was not below 75% throughout. In addition, the mortality at 300 ppm in data set [2] and in data set [4] was not below 75% throughout.
`Cc1cc(C2=NOC(c3cc(Cl)cc(Cl)c3)(C(F)(F)F)C2)ccc1/C=N/OCC(=O)O` (centres unmarked) [Compound 1-12, [1-{4-[5-(3,5-Dichloro-phenyl)-5-trifluoromethyl-4,5-dihydro-isoxazol-3-yl]-2-methyl-phenyl}-meth-(E)-ylideneaminooxy]-acetic acid]: the mortality at 300 ppm in data set [7] is not below 75%. The mortality at 2500 ppm in data set [3] and in [6] was not below 75% in each case.
On to `Cc1cc(C2=NOC(c3cc(Cl)cc(Cl)c3)(C(F)(F)F)C2)ccc1/C=N/OCC(=O)OC(C)(C)C` (centres unmarked) [Compound 1-13, [1-{4-[5-(3,5-Dichloro-phenyl)-5-trifluoromethyl-4,5-dihydro-isoxazol-3-yl]-2-methyl-phenyl}-meth-(E)-ylideneaminooxy]-acetic acid tert-butyl ester], for which the mortality at 300 ppm in data set [2] and in [4] was not below 75% each time. Also, the mortality at 2500 ppm in data set [3] is not below 75%.
With `Cc1cc(C2=NOC(c3cc(Cl)cc(Cl)c3)(C(F)(F)F)C2)ccc1/C=N/OCC(=O)N1CCOCC1` (centres unmarked) [Compound 1-16], the “mortality in comparison with untreated controls” value in data set [8] is reported as “at least 75%”.
Turning to `CC(=NO)c1ccc(C2=NOC(c3cc(Cl)cc(Cl)c3)(C(F)(F)F)C2)cc1C` (centres unmarked) [Compound 1-17, 1-{4-[5-(3,5-Dichloro-phenyl)-5-trifluoromethyl-4,5-dihydro-isoxazol-3-yl]-2-methyl-phenyl}-ethanone oxime], the mortality at 2500 ppm in data set [1] and in [3] was not below 75% in each case. Further, the mortality at 300 ppm in data set [2] and in [9] was not below 75% throughout.
Turning to `Cc1cc(C2=NOC(c3cc(Cl)cc(Cl)c3)(C(F)(F)F)C2)ccc1/C=N/NC(=O)c1ccccn1` (centres unmarked) [Compound 1-45, Pyridine-2-carboxylic acid [1-{4-[5-(3,5-dichloro-phenyl)-5-trifluoromethyl-4,5-dihydro-isoxazol-3-yl]-2-methyl-phenyl}-meth-(E)-ylidene]-hydrazide], the mortality at 2500 ppm in data set [1] and in data set [3] was not below 75% each time.
On to `Cc1cc(C2=NOC(c3cc(Cl)cc(Cl)c3)(C(F)(F)F)C2)ccc1C(CC(C)C)=NO` (centres unmarked) [Compound 1-55, 1-{4-[5-(3,5-Dichloro-phenyl)-5-trifluoromethyl-4,5-dihydro-isoxazol-3-yl]-2-methyl-phenyl}-3-methyl-butan-1-one oxime], for which the mortality at 2500 ppm in data set [1] and in data set [3] was not below 75% each time. The mortality at 300 ppm in data set [2] was not below 75%.
